Measurements as given in patent US12058988B2, “Warm water immersion-based hatching method of silkworm eggs” (Sericulture and Agri-Food Research Institute, Guangdong …, priority 2021, dated 2024).
Read-outs that look alike come from different tables or passages of the source.

Legend:
silkworm eggs [1] = conditions: cited from earlier work; for hatching rate: silkworm eggs 20 h after oviposition, 15% acid treatment (Manqiao Jiang et al.)
[2] = system: silkworm eggs of a "Liangguang 2" quaternary hybrid; experiment: Feeding results of larvae after treating silkworm eggs by warm water hatching and hydrochloric acid hatching; type: in vivo, Bombyx mori; conditions: eggs treated 18 h after laying, larvae fed after hatching
Procedure: 18 h after laying eggs, silkworm eggs of a “Liangguang 2” quaternary hybrid were treated in a hydrochloric acid solution (at a specific gravity of 1.075, 46° C.) for 5 min, followed by taking out for air-drying, incubation and hatching. Statistics was conducted on cocooning rate, whole cocoon weight, cocoon shell weight, cocoon shell rate and 10,000-silkworm cocoon weight.
18 h after laying eggs, silkworm eggs of a “Liangguang 2” quaternary hybrid were treated in a 50° C. warm aqueous solution (containing 0.2 g/L of chitosan, 0.1 g/L of hydroxypropyl cellulose and 0.1 g/L of γ-aminobutyric acid) for 20 s, followed by taking out for air-drying, incubation and hatching. Statistics was conducted on cocooning rate, whole cocoon weight, cocoon shell weight, cocoon shell rate and 10,000-silkworm cocoon weight.

silkworm eggs [3] = experiment: Practical hatching rate of silkworm eggs after immersion treatment; type: in vivo, Bombyx mori; conditions: "Liangguang 2" quaternary hybrid, 18 h after laying, specific gravity 1.075, 46° C. for 5 min
Procedure: After laying eggs, “Liangguang 2” silkworm eggs were placed at 25° C.±1° C. and a humidity of 80%±5% for protection; the silkworm eggs with egg ages of 11 h, 13 h, 15 h, 17 h, 19 h, 21 h and 23 h were placed in an aqueous solution (containing 0.2 g/L of chitosan, 0.1 g/L of hydroxypropyl cellulose and 0.1 g/L of γ-aminobutyric acid) and then treated at 50° C. for 15 s, followed by taking out and air-drying for 25 min; and the silkworm eggs were subjected to incubation and hatching, wherein 3 replicates were set for each treatment. A practical hatching rate was calculated according to formula I, and an egg age-practical hatching rate curve was drawn. Practical hatching rate (%)=number of newly-hatched silkworms in two days/the total number of good eggs×100% formula I
17 h after laying eggs, silkworm eggs of a “Liangguang 2” quaternary hybrid were treated in a 50° C. aqueous solution (containing 0.1 g/L of chitosan, 0.2 g/L of hydroxypropyl cellulose and 0.05 g/L of γ-aminobutyric acid) for 20 s, followed by taking out for air-drying, incubation and hatching.
A practical hatching rate was counted. […]

## C[S+](C)[O-] [dimethyl sulfoxide]
Silkworm eggs [1]; Yamamoto et al.
  effect of preventing diapause: 78%

## O=[N+]([O-])O [nitric acid]
Silkworm eggs [1]
  hatching rate: not less than 95%

## O=P(O)(O)O [phosphoric acid]
Silkworm eggs [1]
  hatching rate: relatively low hatching rate

## Cl [hydrochloric acid]
[2]
  10,000-silkworm cocoon weight: 13.05 kg
  Cocoon shell rate: 19.42%
  Cocoon shell weight: 0.26 g
  Cocooning rate: 96.27%
  Whole cocoon weight: 1.35 g
Silkworm eggs [3]
  hatching rate: 95.86%

## CC(=O)O [acetic acid]
Silkworm eggs [1]
  hatching rate: relatively low hatching rate
